Experimental data taken from patent US20070128217A1 (priority 2003, published 2007).

How the values were obtained:
[1] = system: rabbit serum obtained by immunizing a rabbit with the SARS-CoV strain Frankfurt 1; type: binding; parameters: Binding of a rabbit serum to linear peptides / Binding of a rabbit serum to looped peptides / Rabbit serum linear peptides / Rabbit serum looped peptides / Binding of a rabbit serum to linear peptides of protein N of SARS-CoV Urbani (Rabbit serum linear peptides) / Binding of a rabbit serum to looped/cyclic peptides of protein N of SARS-CoV Urbani (Rabbit serum looped peptides): unit not given here
[2] = system: control sera (pooled serum of ten healthy LUMC hospital workers; commercial negative donor pooled serum from the Dutch bloodbank); type: binding, human; parameters: Binding of Control serum LUMC to linear peptides / Binding of Control serum Blood-bank to linear peptides / Binding of Control serum LUMC to looped peptides / Binding of Control Serum Blood-Bank to Looped peptides / Binding of Control serum LUMC to linear peptides of the protein M of SARS-CoV Urbani / Binding of Control serum Blood-bank to linear peptides of the protein M of SARS-CoV Urbani / Binding of Control serum LUMC to looped peptides of the protein M of SARS-CoV Urbani / Binding of Control Serum Blood-Bank to Looped peptides of the protein M of SARS-CoV Urbani: unit not given here
[3] = system: antibodies in sera from SARS patients (sera 1a, 1b, 2, 6, 37, 62, London, SARS-yellow, SARS-green); type: binding, human; parameters: Binding of serum 6 to linear peptides of protein X1 of SARS-CoV Urbani / Binding of serum 37 to linear peptides of protein X1 of SARS-CoV Urbani / Binding of serum 6 to looped/cyclic peptide (PEPSCAN-ELISA) / Binding of serum 37 to looped/cyclic peptide (PEPSCAN-ELISA) / Binding of serum 37 to looped/cyclic peptides of protein X1 of SARS-CoV Urbani / Binding of serum 6 to linear peptides of protein X2 / Binding of serum 37 to linear peptides of protein X2 / Binding of serum 37 to looped/cyclic peptides of protein X2 of SARS-CoV Urbani / Binding of serum 6 to linear peptides of protein M of SARS-CoV Urbani / Binding of serum 37 to linear peptides of protein M of SARS-CoV Urbani / Binding of serum 6 to looped/cyclic peptides of protein M of SARS-CoV Urbani / Binding of serum 37 to looped/cyclic peptides of protein M of SARS-CoV Urbani / Binding of serum 6 to linear peptides of protein X3 of SARS-CoV Urbani / Binding of serum 37 to linear peptides of protein X3 of SARS-CoV Urbani / Binding of serum 37 to looped/cyclic peptides of protein X3 of SARS-CoV Urbani / Binding of serum 6 to linear peptides of protein X4 of SARS-CoV Urbani / Binding of serum 37 to linear peptides of protein X4 of SARS-CoV Urbani / Binding of serum 37 to looped/cyclic peptides of protein X4 of SARS-CoV Urbani / Binding of serum 6 to linear peptides of protein X5 of SARS-CoV Urbani / Binding of serum 37 to linear peptides of protein X5 of SARS-CoV Urbani / Binding of serum 37 to looped/cyclic peptides of protein X5 of SARS-CoV Urbani / Binding of serum 6 to linear peptides of protein N of SARS-CoV Urbani / Binding of serum 37 to linear peptides of protein N of SARS-CoV Urbani / Binding of serum 6 to linear peptide (PEPSCAN-ELISA) / Binding of serum 1a to looped/cyclic peptides of protein N of SARS-CoV Urbani / Binding of serum 1b to looped/cyclic peptides of protein N of SARS-CoV Urbani / Binding of serum 2 to looped/cyclic peptides of protein N of SARS-CoV Urbani / Binding of serum 6 to looped/cyclic peptides of protein N of SARS-CoV Urbani / Binding of serum 37 to looped/cyclic peptides of protein N of SARS-CoV Urbani / Binding of serum 62 to looped/cyclic peptides of protein N of SARS-CoV Urbani / Binding of serum London to looped/cyclic peptides of protein N of SARS-CoV Urbani / Binding of serum SARS-green to looped/cyclic peptides of protein N of SARS-CoV Urbani: unit not given here

## EPCPSGTYEGNSPFH
[1]
  Rabbit serum linear peptides: 0.6
  Rabbit serum looped peptides: 0.4
[2]
  Binding of Control Serum Blood-Bank to Looped peptides: 0.6
  Binding of Control serum Blood-bank to linear peptides: 0.6
  Binding of Control serum LUMC to linear peptides: 0.5
  Binding of Control serum LUMC to looped peptides: 0.8
[3]
  Binding of serum 1a to linear peptides of protein X4 of SARS-CoV Urbani: 0.7
  Binding of serum 1a to looped/cyclic peptides of protein X4 of SARS-CoV Urbani: 0.8
  Binding of serum 1b to linear peptides of protein X4 of SARS-CoV Urbani: 0.5
  Binding of serum 1b to looped/cyclic peptides of protein X4 of SARS-CoV Urbani: 0.6
  Binding of serum 2 to linear peptides of protein X4 of SARS-CoV Urbani: 0.4
  Binding of serum 2 to looped/cyclic peptides of protein X4 of SARS-CoV Urbani: 0.7
  Binding of serum 6 to linear peptides of protein X4 of SARS-CoV Urbani: 0.5
  Binding of serum 6 to looped/cyclic peptides of protein X4 of SARS-CoV Urbani: 0.6
  Binding of serum 37 to linear peptides of protein X4 of SARS-CoV Urbani: 0.6
  Binding of serum 37 to looped/cyclic peptides of protein X4 of SARS-CoV Urbani: 0.7
  Binding of serum 62 to linear peptides of protein X4 of SARS-CoV Urbani: 0.7
  Binding of serum 62 to looped/cyclic peptides of protein X4 of SARS-CoV Urbani: 0.6
  Binding of serum London to linear peptides of protein X4 of SARS-CoV Urbani: 0.7
  Binding of serum London to looped/cyclic peptides of protein X4 of SARS-CoV Urbani: 0.4
  Binding of serum SARS-green to linear peptides of protein X4 of SARS-CoV Urbani: 0.6
  Binding of serum SARS-green to looped/cyclic peptides of protein X4 of SARS-CoV Urbani: 0.5
  Binding of serum SARS-yellow to linear peptides of protein X4 of SARS-CoV Urbani: 0.9
  Binding of serum SARS-yellow to looped/cyclic peptides of protein X4 of SARS-CoV Urbani: 0.5

## FLIVAALVFLILCFT
[1]
  Rabbit serum linear peptides: 0.4
  Rabbit serum looped peptides: 0.3
[2]
  Binding of Control Serum Blood-Bank to Looped peptides: 0.7
  Binding of Control serum Blood-bank to linear peptides: 0.4
  Binding of Control serum LUMC to linear peptides: 0.4
  Binding of Control serum LUMC to looped peptides: 0.6
[3]
  Binding of serum 1a to linear peptides of protein X4 of SARS-CoV Urbani: 0.6
  Binding of serum 1a to looped/cyclic peptides of protein X4 of SARS-CoV Urbani: 0.7
  Binding of serum 1b to linear peptides of protein X4 of SARS-CoV Urbani: 0.5
  Binding of serum 1b to looped/cyclic peptides of protein X4 of SARS-CoV Urbani: 0.4
  Binding of serum 2 to linear peptides of protein X4 of SARS-CoV Urbani: 0.4
  Binding of serum 2 to looped/cyclic peptides of protein X4 of SARS-CoV Urbani: 0.7
  Binding of serum 6 to linear peptides of protein X4 of SARS-CoV Urbani: 0.5
  Binding of serum 6 to looped/cyclic peptides of protein X4 of SARS-CoV Urbani: 0.4
  Binding of serum 37 to linear peptides of protein X4 of SARS-CoV Urbani: 0.7
  Binding of serum 37 to looped/cyclic peptides of protein X4 of SARS-CoV Urbani: 0.7
  Binding of serum 62 to linear peptides of protein X4 of SARS-CoV Urbani: 0.7
  Binding of serum 62 to looped/cyclic peptides of protein X4 of SARS-CoV Urbani: 0.6
  Binding of serum London to linear peptides of protein X4 of SARS-CoV Urbani: 0.6
  Binding of serum London to looped/cyclic peptides of protein X4 of SARS-CoV Urbani: 0.3
  Binding of serum SARS-green to linear peptides of protein X4 of SARS-CoV Urbani: 0.5
  Binding of serum SARS-green to looped/cyclic peptides of protein X4 of SARS-CoV Urbani: 0.5
  Binding of serum SARS-yellow to linear peptides of protein X4 of SARS-CoV Urbani: 0.7
  Binding of serum SARS-yellow to looped/cyclic peptides of protein X4 of SARS-CoV Urbani: 0.5

## ETNILLNVPLRGTIV
[1]
  Rabbit serum linear peptides: 0.5
  Rabbit serum looped peptides: 0.0
[2]
  Binding of Control Serum Blood-Bank to Looped peptides of the protein M of SARS-CoV Urbani: 1.0
  Binding of Control serum Blood-bank to linear peptides of the protein M of SARS-CoV Urbani: 0.7
  Binding of Control serum LUMC to linear peptides of the protein M of SARS-CoV Urbani: 0.3
  Binding of Control serum LUMC to looped peptides of the protein M of SARS-CoV Urbani: 0.9
[3]
  Binding of serum 1a to linear peptides of protein M of SARS-CoV Urbani: 0.7
  Binding of serum 1a to looped/cyclic peptides of protein M of SARS-CoV Urbani: 0.5
  Binding of serum 1b to linear peptides of protein M of SARS-CoV Urbani: 0.5
  Binding of serum 1b to looped/cyclic peptides of protein M of SARS-CoV Urbani: 0.6
  Binding of serum 2 to linear peptides of protein M of SARS-CoV Urbani: 0.5
  Binding of serum 2 to looped/cyclic peptides of protein M of SARS-CoV Urbani: 0.7
  Binding of serum 6 to linear peptides of protein M of SARS-CoV Urbani: 0.4
  Binding of serum 6 to looped/cyclic peptides of protein M of SARS-CoV Urbani: 0.8
  Binding of serum 37 to linear peptides of protein M of SARS-CoV Urbani: 0.6
  Binding of serum 37 to looped/cyclic peptides of protein M of SARS-CoV Urbani: 0.4
  Binding of serum 62 to linear peptides of protein M of SARS-CoV Urbani: 0.7
  Binding of serum 62 to looped/cyclic peptides of protein M of SARS-CoV Urbani: 0.5
  Binding of serum London to linear peptides of protein M of SARS-CoV Urbani: 0.4
  Binding of serum London to looped/cyclic peptides of protein M of SARS-CoV Urbani: 0.2
  Binding of serum SARS-green to linear peptides of protein M of SARS-CoV Urbani: 0.3
  Binding of serum SARS-green to looped/cyclic peptides of protein M of SARS-CoV Urbani: 0.2
  Binding of serum SARS-yellow to linear peptides of protein M of SARS-CoV Urbani: 0.1
  Binding of serum SARS-yellow to looped/cyclic peptides of protein M of SARS-CoV Urbani: 0.5
